Assay results reported in patent US20050209157A1, “Short bioactive peptides and methods for their use” (priority 2001, published 2005).
Values after ≈ are worked out from the molar mass of the structure shown.

Columns and labels:
[1] = test system: Candida albicans ATCC 10231; assay: Antimicrobial assay I, modified protocol (tryptic soy broth), MFC; conditions: minimum fungicidal concentration, Table 4
Description: The preparation of all media, stock solutions, and dilutions took place in a laminar flow hood to prevent contamination. Bacterial cells were freshly grown on antibiotic medium 2 agar slants (pH 7.0 at 25° C.). Bacteria were suspended and diluted in antibiotic medium 3 to about 10^4 cfu/ml and used as the inoculum. Sample solutions (100 μl/well) were added to plates according to the plate layout. Inoculum (100 μl/well) was added to achieve a final concentration of 5×10^3 cfu/ml. Negative controls received 100 μl saline and 100 μl growth medium. Positive controls received 100 μl saline and 100 μl inoculum. Bacterial plates were incubated at 37° C. for 24 hours.
However, the data for Table 4 were obtained with a modified protocol wherein the medium was tryptic soy broth, inocolum strength was approximately 10^4 CFU per ml, and values determined were minimum bactericidal concentrations (MBC) or minimum fungicidal concentrations (MFC).
MBC or MFC values are in μg/mL. E. coli is Escherichia coli ATCC accession number 25922; P. aerug is Pseudomonas aeruginosa ATCC accession number 27853, S. aur. is Stapholococcus aureus ATCC accession number 25923; Candida is Candida albicans ATCC accession number 10231.

[2] = test system: Stapholococcus aureus ATCC 25923; assay: Antimicrobial assay I, modified protocol (tryptic soy broth), MBC; conditions: minimum bactericidal concentration, Table 4
[3] = test system: Pseudomonas aeruginosa ATCC 27853; assay: as above; conditions: minimum bactericidal concentration, Table 4
[4] = test system: Escherichia coli ATCC 25922; assay: as above; conditions: minimum bactericidal concentration, Table 4

Compound | MFC Candida A.10231 [1] | MBC S. aur A.25923 [2] | MBC P. aerug A.27853 [3] | MBC E. coli A.25922 [4]
CC(C)C[C@H](NC(=O)[C@H](CCCCN)NC(=O)[C@H](C)NC(=O)[C@H](CCCCN)NC(=O)[C@H](C)NC(=O)[C@H](CC(C)C)NC(=O)[C@H](CCCCN)NC(=O)[C@H](C)NC(=O)[C@H](CC(C)C)NC(=O)[C@H](CC(C)C)NC(=O)[C@H](CCCCN)NC(=O)[C@H](C)NC(=O)[C@@H](N)Cc1ccccc1)C(N)=O [compound 65] | >50 µg/mL | >55 µg/mL | >50 µg/mL | >55 µg/mL
CC(C)C[C@H](NC(=O)[C@H](CC(C)C)NC(=O)[C@H](CCCCN)NC(=O)[C@H](CCCCN)NC(=O)[C@H](C)NC(=O)[C@H](C)NC(=O)[C@H](CC(C)C)NC(=O)[C@H](CCCCN)NC(=O)[C@H](CC(C)C)NC(=O)[C@H](CC(C)C)NC(=O)[C@H](CCCCN)NC(=O)[C@H](C)NC(=O)[C@@H](N)Cc1ccccc1)C(N)=O [compound 56] | 30 µg/mL (≈ 20.6 µM) | 55 µg/mL (≈ 37.8 µM) | 10 µg/mL (≈ 6.87 µM) | 50 µg/mL (≈ 34.3 µM)
CC(C)C[C@H](NC(=O)[C@H](C)NC(=O)[C@H](CC(C)C)NC(=O)[C@H](CCCCN)NC(=O)[C@H](C)NC(=O)[C@H](CC(C)C)NC(=O)[C@H](CCCCN)NC(=O)[C@H](CCCCN)NC(=O)[C@H](C)NC(=O)[C@H](CC(C)C)NC(=O)[C@H](CCCCN)NC(=O)[C@H](CCCCN)NC(=O)[C@H](C)NC(=O)[C@@H](N)Cc1ccccc1)C(N)=O [compound 45] | >50 µg/mL | 80 µg/mL (≈ 51.9 µM) | 40 µg/mL (≈ 25.9 µM) | 30 µg/mL (≈ 19.5 µM)
CC(C)C[C@H](NC(=O)[C@H](CCCCN)NC(=O)[C@H](C)NC(=O)[C@H](CC(C)C)NC(=O)[C@H](CC(C)C)NC(=O)[C@H](CCCCN)NC(=O)[C@H](C)NC(=O)[C@@H](N)Cc1ccccc1)C(=O)N[C@@H](C)C(=O)N[C@@H](CCCCN)C(=O)N[C@@H](C)C(=O)N[C@@H](CCCCN)C(=O)N[C@@H](C)C(N)=O [compound 95] | >50 µg/mL | >50 µg/mL | >50 µg/mL | >50 µg/mL
CC(C)C[C@H](NC(=O)[C@H](CCCCN)NC(=O)[C@H](CCCCN)NC(=O)[C@H](C)NC(=O)[C@H](CC(C)C)NC(=O)[C@H](CCCCN)NC(=O)[C@H](C)NC(=O)[C@H](CC(C)C)NC(=O)[C@H](CC(C)C)NC(=O)[C@H](CCCCN)NC(=O)[C@H](C)NC(=O)[C@@H](N)Cc1ccccc1)C(N)=O [compound 49] | 30 µg/mL (≈ 22.3 µM) | 50 µg/mL (≈ 37.2 µM) | 30 µg/mL (≈ 22.3 µM) | 40 µg/mL (≈ 29.8 µM)
CC(C)C[C@H](NC(=O)[C@H](CCCCN)NC(=O)[C@H](CC(C)C)NC(=O)[C@H](CC(C)C)NC(=O)[C@H](C)NC(=O)[C@@H](N)Cc1ccccc1)C(N)=O [compound 168] | 150 µg/mL (≈ 213 µM) | >250 µg/mL | 100 µg/mL (≈ 142 µM) | 75 µg/mL (≈ 107 µM)
CC(C)C[C@H](NC(=O)[C@H](CCCCN)NC(=O)[C@H](CCCCN)NC(=O)[C@H](Cc1c[nH]c2ccccc12)NC(=O)[C@@H](N)CCCCN)C(=O)N[C@@H](C)C(=O)N[C@@H](CCCCN)C(=O)N[C@@H](CCCCN)C(=O)N[C@@H](Cc1c[nH]c2ccccc12)C(N)=O [compound 161] | 25 µg/mL (≈ 20.6 µM) | >250 µg/mL | >250 µg/mL | 150 µg/mL (≈ 124 µM)
CC(C)C[C@H](NC(=O)[C@H](CCCCN)NC(=O)[C@H](CCCCN)NC(=O)[C@H](C)NC(=O)[C@H](CC(C)C)NC(=O)[C@H](CCCCN)NC(=O)[C@H](C)NC(=O)[C@H](CC(C)C)NC(=O)[C@H](CCCCN)NC(=O)[C@H](CCCCN)NC(=O)[C@H](C)NC(=O)[C@@H](N)Cc1ccccc1)C(N)=O [compound 106] | >50 µg/mL |  | >50 µg/mL | 50 µg/mL (≈ 36.8 µM)
CC(C)C[C@H](NC(=O)[C@H](C)NC(=O)[C@H](CC(C)C)NC(=O)[C@H](CCCCN)NC(=O)[C@H](C)NC(=O)[C@H](CC(C)C)NC(=O)[C@H](CCCCN)NC(=O)[C@H](CCCCN)NC(=O)[C@H](CC(C)C)NC(=O)[C@H](CCCCN)NC(=O)[C@H](CCCCN)NC(=O)[C@H](C)NC(=O)[C@H](CC(C)C)NC(=O)[C@H](CCCCN)NC(=O)[C@H](CCCCN)NC(=O)[C@H](C)NC(=O)[C@@H](N)Cc1ccccc1)C(=O)N[C@@H](C)C(=O)N[C@@H](CCCCN)C(N)=O [compound 41] |  | 40 µg/mL (≈ 19 µM) | 40 µg/mL (≈ 19 µM) | 40 µg/mL (≈ 19 µM)
CC(C)C[C@H](NC(=O)[C@H](C)NC(=O)[C@H](CC(C)C)NC(=O)[C@H](C)NC(=O)[C@H](CCCCN)NC(=O)[C@H](CCCCN)NC(=O)[C@H](C)NC(=O)[C@H](CC(C)C)NC(=O)[C@H](CCCCN)NC(=O)[C@H](C)NC(=O)[C@H](CC(C)C)NC(=O)[C@H](CCCCN)NC(=O)[C@H](CCCCN)NC(=O)[C@H](C)NC(=O)[C@@H](N)Cc1ccccc1)C(N)=O [compound 39] |  | >40 µg/mL | >40 µg/mL | >40 µg/mL
CC[C@H](C)[C@H](NC(=O)CNC(=O)[C@H](CC(C)C)NC(=O)[C@H](CCCCN)NC(=O)[C@H](C)NC(=O)[C@H](CC(C)C)NC(=O)[C@H](C)NC(=O)[C@@H](NC(=O)[C@H](CCCCN)NC(=O)[C@H](C)NC(=O)[C@@H](NC(=O)[C@@H](N)CCCCN)[C@@H](C)CC)C(C)C)C(=O)NCC(=O)N[C@@H](C)C(=O)N[C@H](C(=O)N[C@@H](CC(C)C)C(=O)N[C@@H](CCCCN)C(=O)N[C@H](C(=O)N[C@@H](CC(C)C)C(=O)N[C@H](C(=O)N[C@H](C(=O)NCC(=O)N[C@@H](CC(C)C)C(N)=O)[C@@H](C)O)[C@@H](C)O)C(C)C)C(C)C [compound 105] | >50 µg/mL |  | >50 µg/mL | 25 µg/mL (≈ 11 µM)
CC[C@H](C)[C@H](NC(=O)CNC(=O)[C@H](CC(N)=O)NC(=O)[C@H](CCCNC(=N)N)NC(=O)[C@@H](NC(=O)[C@H](CC(N)=O)NC(=O)[C@H](CCCNC(=N)N)NC(=O)CNC(=O)[C@@H](NC(=O)[C@H](CCCCN)NC(=O)[C@H](CCC(=O)O)NC(=O)[C@@H](NC(=O)[C@H](CCCCN)NC(=O)[C@H](CCCCN)NC(=O)[C@H](Cc1ccccc1)NC(=O)[C@@H](NC(=O)[C@H](CCCCN)NC(=O)[C@H](Cc1c[nH]c2ccccc12)NC(=O)[C@H](CCCCN)NC(=O)[C@@H]1CCCN1C(=O)[C@@H](N)CCSC)C(C)C)[C@@H](C)CC)C(C)C)[C@@H](C)CC)C(=O)N[C@H](C(=O)N[C@@H](CCCCN)C(=O)N[C@@H](C)C(=O)NCC(=O)N1CCC[C@H]1C(=O)N[C@@H](C)C(=O)N[C@H](C(=O)N[C@@H](C)C(=O)N[C@H](C(=O)N[C@@H](CC(C)C)C(=O)NCC(=O)N[C@@H](CCC(=O)O)C(=O)N[C@@H](C)C(=O)N[C@@H](CCCCN)C(=O)N[C@@H](C)C(=O)N[C@@H](CC(C)C)C(=O)NCC(=O)O)C(C)C)[C@@H](C)CC)C(C)C [compound 5] |  | 40 µg/mL (≈ 9.78 µM) | >60 µg/mL | 50 µg/mL (≈ 12.2 µM)
CC(C)C[C@H](NC(=O)[C@H](C)NC(=O)[C@H](CCCCN)NC(=O)[C@H](C)NC(=O)[C@H](CC(C)C)NC(=O)[C@H](CCCCN)NC(=O)[C@H](CCCCN)NC(=O)[C@H](C)NC(=O)[C@H](CC(C)C)NC(=O)[C@H](CCCCN)NC(=O)[C@H](C)NC(=O)[C@H](CC(C)C)NC(=O)[C@H](CCCCN)NC(=O)[C@H](CCCCN)NC(=O)[C@H](C)NC(=O)[C@@H](N)Cc1ccccc1)C(N)=O [compound 109] | >50 µg/mL | 80 µg/mL (≈ 45.9 µM) |  | 
CC[C@H](C)[C@H](NC(=O)[C@H](CC(N)=O)NC(=O)[C@H](CCCNC(=N)N)NC(=O)CNC(=O)[C@H](CCSC)NC(=O)[C@H](CCCCN)NC(=O)[C@H](CCC(=O)O)NC(=O)[C@@H](NC(=O)[C@H](CCCCN)NC(=O)[C@H](CC(C)C)NC(=O)[C@H](Cc1ccccc1)NC(=O)[C@@H](NC(=O)[C@H](CCCCN)NC(=O)[C@H](CCC(=O)O)NC(=O)[C@H](CCCCN)NC(=O)[C@@H]1CCCN1C(=O)[C@@H](N)CCSC)C(C)C)[C@@H](C)CC)C(=O)N[C@@H](CCCNC(=N)N)C(=O)N[C@@H](CC(N)=O)C(N)=O [compound 107] | >50 µg/mL | >50 µg/mL | >50 µg/mL | 
CC[C@H](C)[C@H](NC(=O)CNC(=O)[C@H](CC(N)=O)NC(=O)[C@H](CCCNC(=N)N)NC(=O)[C@@H](NC(=O)[C@H](CC(N)=O)NC(=O)[C@H](CCCNC(=N)N)NC(=O)CNC(=O)[C@@H](NC(=O)[C@H](CCCCN)NC(=O)[C@H](CCC(=O)O)NC(=O)[C@@H](NC(=O)[C@H](CCCCN)NC(=O)[C@H](CCCCN)NC(=O)[C@H](Cc1ccccc1)NC(=O)[C@@H](NC(=O)[C@H](CCCCN)NC(=O)[C@H](Cc1c[nH]c2ccccc12)NC(=O)[C@H](CCCCN)NC(=O)[C@@H]1CCCN1C(=O)[C@@H](N)CCSC)C(C)C)[C@@H](C)CC)C(C)C)[C@@H](C)CC)C(=O)N[C@H](C(=O)N[C@@H](CCCCN)C(=O)N[C@@H](C)C(=O)NCC(=O)N1CCC[C@H]1C(=O)N[C@@H](C)C(=O)N[C@H](C(=O)N[C@@H](C)C(=O)N[C@H](C(=O)N[C@@H](CC(C)C)C(=O)NCC(=O)N[C@@H](CCC(=O)O)C(=O)N[C@@H](C)C(=O)N[C@@H](CCCCN)C(=O)N[C@@H](C)C(=O)N[C@@H](CC(C)C)C(=O)NCC(N)=O)C(C)C)[C@@H](C)CC)C(C)C [compound 12] |  | 75 µg/mL (≈ 18.3 µM) | >60 µg/mL | 50 µg/mL (≈ 12.2 µM)
